From ChEMBL document CHEMBL1201862, “PubChem BioAssay data set” (2004)
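Each compound was tested at five concentrations against cells in 96-well plates for 48 hours. At the GI50, growth is halved.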 Calls of active or inactive are those of the source. No stated cut-off is given here; in the data, active = GI50 up to about 1.1 µM and inactive = higher.

Key:
Experiment in all cases: NCI anticancer screen, dose series, 48 h
A549 = test system: A549
ACHN = test system: ACHN
HL-60 = test system: HL-60
HOP-62 = test system: HOP-62
HOP-92 = test system: HOP-92
IGROV-1 = test system: IGROV-1
KM12 = test system: KM12
LOX IMVI = test system: LOX IMVI
M19-MEL = test system: M19-MEL
Malme-3M = test system: Malme-3M
NCI-H23 = test system: NCI-H23
OVCAR-5 = test system: OVCAR-5
RPMI-8226 = test system: RPMI-8226
SK-MEL-28 = test system: SK-MEL-28
SNB-75 = test system: SNB-75
U-251 = test system: U-251
UACC-257 = test system: UACC-257

Measured: GI50

COc1ccc(/C(=N\NC(=S)NN)C(c2ccc(OC)cc2)C2C(=O)Oc3ccccc32)cc1 (stereo not drawn)
inactive: A549 > 10 µM | ACHN > 10 µM | HL-60 > 10 µM | HOP-62 > 10 µM | HOP-92 > 10 µM | IGROV-1 > 10 µM | KM12 > 10 µM | LOX IMVI > 10 µM | M19-MEL > 10 µM | Malme-3M > 10 µM | NCI-H23 > 10 µM | OVCAR-5 > 10 µM | RPMI-8226 > 10 µM | SK-MEL-28 56.2 µM | SNB-75 > 10 µM | U-251 > 10 µM | UACC-257 > 10 µM

Cc1c(C(=O)CSc2nc3ccccc3c(=O)n2-c2ccccc2)c(=O)n(-c2ccccc2)n1C
inactive: A549 64.9 µM | ACHN 35.2 µM | HL-60 > 100 µM | HOP-62 31.4 µM | HOP-92 24.3 µM | IGROV-1 > 100 µM | KM12 54.7 µM | LOX IMVI 42.1 µM | M19-MEL 52.7 µM | Malme-3M 60.5 µM | NCI-H23 62.4 µM | OVCAR-5 > 100 µM | RPMI-8226 > 100 µM | SK-MEL-28 99.3 µM | SNB-75 60.8 µM | U-251 22.4 µM | UACC-257 47.3 µM

O=C(OC1CC(n2cc(F)c(=O)[nH]c2=O)OC1CSC(=O)c1ccccc1)c1ccccc1 (stereo not drawn)
inactive: A549 29.2 µM | ACHN 34.6 µM | HL-60 23.3 µM | HOP-62 51.3 µM | HOP-92 22.9 µM | IGROV-1 56.2 µM | KM12 27.4 µM | LOX IMVI 50.9 µM | M19-MEL 26.5 µM | Malme-3M 28.7 µM | NCI-H23 26.4 µM | OVCAR-5 61.8 µM | RPMI-8226 22.5 µM | SK-MEL-28 48 µM | SNB-75 19.4 µM | U-251 17.6 µM | UACC-257 29.2 µM

CCOC(=O)C1S/C(=N\c2cccc(Cl)c2C)N=C1C (stereo not drawn)
inactive: A549 21.9 µM | ACHN 25.3 µM | HL-60 21.6 µM | HOP-62 80 µM | HOP-92 15.1 µM | IGROV-1 31.3 µM | KM12 27 µM | LOX IMVI 18.1 µM | M19-MEL 26.9 µM | Malme-3M 19.6 µM | NCI-H23 > 10 µM | OVCAR-5 18.7 µM | RPMI-8226 22 µM | SK-MEL-28 40 µM | SNB-75 16.3 µM | U-251 15.1 µM | UACC-257 > 10 µM
